Source: US7462613B2, “Pyridazinone derivatives as pharmaceuticals and pharmaceutical compositions containing them” (SANOFI-AVENTIS Deutschland GmbH, priority 2002, dated 2008)
pIC50: −log10 of the molar value.

These compounds were tested against CDK2/Cyclin E kinase (Homo sapiens, UniProt P24941) (assay: CDK2/Cyclin E Flashplate Assay: 96-Well Format). Settings: streptavidin-coated flashplate; biotinylated-Rb peptide substrate 10 μM; 33P-ATP/ATP 1 μM; CDK2/Cyclin E 20 nM; 30 minutes at 30° C.; 1% DMSO.
Type: biochemical
Method: Functional Measurements for Determination of IC50-Values
CDK2/Cyclin E Flashplate Assay: 96-Well Format
A 96-well streptavidin-coated flashplate was used to assay potency of compounds according formula (I) against CDK2/Cyclin E kinase. To carry out the assay, biotinylated-Rb peptide substrate (Biotin-[…]-OH) was solubilized at 1 mM in kinase buffer (Hepes 50 mM, NaCl 1 mM, MgCl2 5 mM pH 7.5) as a stock solution conserved at −20° C. in aliquots of 110 μl. The day of the experiment, an aliquot of this solution was thawed and diluted to 14.3 μM in kinase buffer, containing 1 mM dithiothreitol (DTT) added in the buffer at the same time.
70 μl of this solution was added in each well of the flashplate in order to achieve a final concentration of 10 μM (100 μl reactionnal volume). Serial dilutions of inhibitors were prepared in DMSO from 10 mM stock solutions in order to achieve 1000 μM, 333.3 μM, 111.1 μM, 37.03 μM, 12.35 μM, 4.11 μM and 1.37 μM and all were rediluted in kinase buffer+DTT in order to achieve 100 μM, 33.3 μM, 11.1 μM, 3.7 μM, 1.24 μM, 0.41 μM and 0.14 μM in DMSO 10% buffer (vol/vol). 10 μl of each, of these solutions (or 10 μl of buffer+DTT for controls) were transferred to the testplate wells in order to achieve 10 μM, 3.33 μM, 1.11 μM, 0.37 μM, 0.12 μM, 0.04. μM and 0.01 μM as final concentrations, 1% DMSO (vol/vol). In each well, 10 μl of a solution of a mix of ^33PyATP/ATP were added in order to achieve 1 μM final concentration and a total of 1 μCi. The kinase reaction was initiated by addition of 10 μl of a solution at 200 nM of CDK2/Cyclin E in kinase buffer+DTT (or buffer+DTT for blanks) in order to achieve 20 nM final concentration. After addition of each reagent, the test-plate was shakened. The plates were incubated 30 minutes at 30° C. with a shaking at 650 rpm. At the end of the incubation, the plates were washed 3 times with 300 μl of PBS (without calcium and magnesium) per well. The incorporation of ^33P to the peptide was measured by scintillation counting.
A pIC50 of 6.80 was found for `CNc1cc(-c2cc(C(=O)NCc3ccc(Cl)cc3)c(=O)[nH]n2)ccn1` [Example 206, 6-(2-Methylamino-pyridin-4-yl)-3-oxo-2,3-dihydro-pyridazine-4-carboxylicacid 4-chloro-benzylamide] in this work.
A pIC50 of 7.62 was found for `COC(=O)c1ccc(CNC(=O)c2cc(-c3ccncc3)n[nH]c2=O)cc1` [Example 217, 4-{[(3-Oxo-6-pyridin-4-yl-2,3-dihydro-pyridazine-4-carbonyl)-amino]-methyl}-benzoic acid methylester; compound withtrifluoro-acetic acid] in this work.
A pIC50 of 6.97 was found for `CCCCNc1nccc(-c2cc(C(=O)NCCCN3CCN(C)CC3)c(=O)[nH]n2)n1` [Example 218, 6-(2-Butylamino-pyrimidin-4-yl)-3-oxo-2,3-dihydro-pyridazine-4-carboxylic acid [3-(4-methyl-piperazin-1-yl)-propyl]-amide; compoundwith trifluoro-acetic acid] in this work.
A pIC50 of 7.82 was found for `CCCCNc1nccc(-c2cc(C(=O)NCc3cccnc3)c(=O)[nH]n2)n1` [Example 219, 6-(2-Butylamino-pyrimidin-4-yl)-3-oxo-2,3-dihydro-pyridazine-4-carboxylic acid (pyridin-3-ylmethyl)-amide] in this work.
A pIC50 of 7.92 was found for `CCCCNc1nccc(-c2cc(C(=O)NCCCc3cccnc3)c(=O)[nH]n2)n1` [Example 220, 6-(2-Butylamino-pyrimidin-4-yl)-3-oxo-2,3-dihydro-pyridazine-4-carboxylic acid (3-pyridin-3-yl-propyl)-amide] in this work.
A pIC50 of 6.83 was found for `COc1cc(-c2cc(C(=O)NCc3ccc(C(=O)O)cc3)c(=O)[nH]n2)ccc1O` [Example 225, 4-({[6-(4-Hydroxy-3-methoxy-phenyl)-3-oxo-2,3-dihydro-pyridazine-4-carbonyl]-amino}-methyl)-benzoic acid] in this work.
